Assays:
Format in all cases: cell-based, human
HCT-116 cells = experiment: SRB cytotoxicity assay, HCT-116; settings: SRB assay, 72 h exposure, ± SEM
Method: Compounds in this study were tested against colorectal cancer cell line HCT-116, using sulforhodamine-B (SRB) assay. See Skehan, P.; Storeng, R.; Scudiero, D.; Monks, A.; McMahon, J.; Vistica, D.; Warren, J. T.; Bokesch, H.; Kenney, S.; Boyd, M. R., New colorimetric cytotoxicity assay for anticancer-drug screening. J Natl Cancer Inst 1990, 82 (13), 1107-12, incorporated herein by reference in its entirety. […] However, it was clear that compounds bearing hydrophobic aliphatic groups such as MOS-1505 and MOS-1512 are clearly favored in providing anticancer activities. […] The N-aryl substituents were less advantageous in both potency and solubility.
(§1) Different cell lines were originally purchased from American type culture collection (ATCC, Wesel, Germany) and grown in the tissue culture lab of the Egyptian company for production of vaccines, sera and drugs (Vacsera, Giza, Egypt). The cells were transferred to our laboratory and maintained in the appropriate media as following. HCT-116, CACO-2, and HT-29 (human colon cancer cell lines) were maintained in Roswell Park Memorial Institute medium (RPMI1640) (Invitrogen, Carlsbad, Calif.). The mouse skin fibroblasts (C-166) and Baby Hamster Kidney fibroblasts (BHK) were grown in Dulbecco Modified Eagle's medium (DMEM). Both media were supplemented with 1% of […] of streptomycin, 100 units/mL of penicillin and 10% of heat-inactivated fetal bovine serum (Invitrogen, Carlsbad, Calif.) in a humidified, 5% (v/v) CO2 atmosphere at 37° C.
(§2) The sulforhodamine B (SRB) assays were performed according to Skehan, P.; Storeng, R.; Scudiero, D.; Monks, A.; McMahon, J.; Vistica, D.; Warren, J. T.; Bokesch, H.; Kenney, S.; Boyd, M. R., New colorimetric cytotoxicity assay for anticancer-drug screening. J Natl Cancer Inst 1990, 82 (13), 1107-12, incorporated herein by reference in its entirety. Briefly, exponentially growing cells were trypsinized, counted and seeded at the appropriate densities (5000 cells/100 μL/well) into 96-well microtiter plates. Cells were incubated in a humidified atmosphere at 37° C. for 24 h. Then, the cells were exposed to different compounds at the desired concentrations, (0.01, 0.1, 1, 10, and 100 μM) or to 1% dimethyl sulfoxide (DMSO) for 72 h. At the end of the treatment period, the media were removed, and the cells were fixed with 10% trichloroacetic acid at 4° C. for 1 hr. Following, the cells were washed with tap water four times and incubated with SRB 0.4% for 30 min. Excess dye was removed by washing repeatedly with 1% (vol/vol) acetic acid. The protein-bound dye was dissolved in 10 mM Tris base solution for (optical density) OD determination at 510 nm using a SpectraMax plus Microplate Reader (Molecular Devices, CA). Cell viability was expressed relative to the untreated control cells.

HT-29 cells = experiment: SRB cytotoxicity assay, HT-29; settings: 72 h exposure, ± SEM
Description: (§3) Based on the favorable pharmacologic and physicochemical properties of MOS-1512, it was selected as a new lead for the second subset of compounds (MOS-1812 to MOS-5112). The compounds in this series contained variable groups at R^1 and R^2 that were all tested against the three cancer cell lines (HCT-116, Caco-2 and HT-29).
as §1, §2

CACO-2 cells = experiment: SRB cytotoxicity assay, CACO-2; settings: ± SEM
Description: as §3, §1, §2

[1] = Homo sapiens, Caco-2, 72 h exposure

| SMILES | IC50 (HCT-116 cells; Homo sapiens, HCT-116) [µM] | IC50 (HT-29 cells; Homo sapiens, HT-29, monolayer) [µM] | IC50 (CACO-2 cells; [1]) [µM] | IC50 (HT-29 cells; monolayer) [µM] | IC50 (HCT-116 cells) [µM] | IC50 (CACO-2 cells; 72 h exposure) [µM] |
| --- | --- | --- | --- | --- | --- | --- |
| NC(=O)/C(=C/c1ccccc1)NC(=O)/C=C/c1ccccc1 [Compound 1508, N—[(Z)-3-amino-3-oxo-1-phenylprop-1-en-2-yl]-(E)-cinnamamide] | > 100 | – | – | – | – | – |
| CN1CCN(NC(=O)/C(=C/c2ccccc2)NC(=O)/C=C/c2ccccc2)CC1 [Compound 1511, (Z)-2-[(E)-cinnamamido]-N-(4-methyl-1-piperazinyl)-3-phenyl-acrylamide] | > 100 | – | – | – | – | – |
| N#Cc1cccc(NC(=O)/C(=C/c2ccccc2)NC(=O)/C=C/c2ccccc2)c1 [Compound 1513, (Z)-2-[(E)-cinnamamido]-N-(3-cyanophenyl)-3-phenyl-acrylamide] | > 100 | – | – | – | – | – |
| O=C(/C=C/c1ccccc1)N/C(=C\c1ccccc1)C(=O)Nc1ccc(F)cc1 [Compound 1528, (Z)-2-[(E)-cinnamamido]-N-(4-fluorophenyl)-3-phenylacrylamide] | 91.9 ± 4.4 | – | – | – | – | – |
| O=C(/C=C/c1ccccc1)N/C(=C\c1ccccc1)C(=O)NCc1ccco1 [Compound 1530, (Z)-2-[(E)-cinnamamido]-N-(2-furylmethyl)-3-phenyl-acrylamide] | > 100 | – | – | – | – | – |
| O=C(/C=C/c1ccccc1)N/C(=C\c1ccccc1)C(=O)NCCN1CCOCC1 [Compound 1531, (Z)-2-[(E)-cinnamamido]-N-(2-morpholinoethyl)-3-phenyl-acrylamide] | > 100 | – | – | – | – | – |
| O=C(C=Cc1ccccc1)N/C(=C\c1ccccc1)C(=O)N1CCOCC1 [Compound 1536, N—[(Z)-3-morpholino-3-oxo-1-phenylprop-1-en-2-yl]cinnamamide] | > 100 | – | – | – | – | – |
| O=C(C=Cc1ccccc1)N/C(=C\c1ccccc1)C(=O)N1CCCC1 [Compound 1555, N—[(Z)-3-(1-pyrrolidinyl)-3-oxo-1-phenylprop-1-en-2-yl]cinnamamide] | > 100 | – | – | – | – | – |
| CCCCNC(=O)/C(=C/c1ccccc1)NC(=O)/C=C/c1ccccc1 [Compound 1556, (Z)—N-(n-butyl)-2-[(E)-cinnamamido]-3-phenylacrylamide] | 67.2 ± 6.3 | – | – | – | – | – |
| CCC(C)NC(=O)/C(=C/c1ccccc1)NC(=O)C=Cc1ccccc1 (stereo not shown) [Compound 1557, (Z)—N-(sec-butyl)-2-cinnamamido-3-phenylacrylamide] | 52.4 ± 7.1 | – | – | – | – | – |
| CCNC(=O)/C(=C/c1ccccc1)NC(=O)/C=C/c1ccccc1 [Compound 1558, (Z)-2-[(E)-cinnamamido]-N-ethyl-3-phenylacrylamide] | > 100 | – | – | – | – | – |
| CCN(C)C(=O)/C(=C/c1ccccc1)NC(=O)C=Cc1ccccc1 [Compound 1559, (Z)-2-cinnamamido-N-ethyl-N-methyl-3-phenylacrylamide] | 28.8 ± 1 | – | – | – | – | – |
| CCCNC(=O)/C(=C/c1ccccc1)NC(=O)/C=C/c1ccc(Cl)cc1 [Compound 1812, (Z)-2-[(E)-3-(4-chlorophenyl)acrylamido]-3-phenyl-N-propylacrylamide] | 10.3 ± 0.34 | 7.9 ± 0.43 | 10.7 ± 0.5 | – | – | – |
| CCCNC(=O)/C(=C/c1ccccc1)NC(=O)/C=C/c1ccc(OC)cc1 [Compound 1912, (Z)-2-[(E)-3-(4-methoxyphenyl)acrylamido]-3-phenyl-N-propylacrylamide] | 34.1 ± 1.8 | 55.3 ± 3.2 | 18.5 ± 1.5 | – | – | – |
| CCCNC(=O)/C(=C/c1ccccc1)NC(=O)/C=C/c1ccc(C)cc1 [Compound 2012, (Z)-3-phenyl-N-propyl-2-[(E)-3-(p-tolyl)acrylamidolacry]amide] | – | – | – | 54.1 ± 0.42 | 35.2 ± 0.54 | 12.7 ± 0.67 |
| CCCNC(=O)/C(=C/c1ccccc1)NC(=O)/C=C/c1cccs1 [Compound 2112, (Z)-3-phenyl-N-propyl-2-[(E)-3-(thien-2-yl)acrylamidolacry]amide] | – | – | – | 43.2 ± 2.3 | 43 ± 1.5 | 27.8 ± 1.3 |

| SMILES | IC50 (HCT-116 cells; Homo sapiens, HCT-116) [µM] | IC50 (HT-29 cells; Homo sapiens, HT-29, monolayer) [µM] | IC50 (CACO-2 cells; [1]) [µM] | IC50 (HT-29 cells; monolayer) [µM] | IC50 (HCT-116 cells) [µM] | IC50 (CACO-2 cells; 72 h exposure) [µM] |
| --- | --- | --- | --- | --- | --- | --- |
| CCCNC(=O)/C(=C/c1ccc(F)cc1)NC(=O)C=Cc1ccccc1 [Compound 2212, (Z)-2-cinnamamido-3-(4-fluorophenyl)-N-propylacrylamide] | 15.2 ± 1.2 | 7.2 ± 0.31 | 13.2 ± 1 | – | – | – |
| CCCNC(=O)/C(=C/c1ccc(F)cc1)NC(=O)/C=C/c1ccc(OC)cc1 [Compound 2412, (Z)-3-(4-fluorophenyl)-2-[(E)-3-(4-methoxyphenyl)acrylamido]-N-propylacrylamide] | 29.3 ± 1.2 | 86.5 ± 2.9 | 45.7 ± 1.2 | – | – | – |
| CCCNC(=O)/C(=C/c1ccc(F)cc1)NC(=O)/C=C/c1ccc(C)cc1 [Compound 2512, (Z)-3-(4-fluorophenyl)-N-propyl-2-[(E)-3-(p-tolyl)acrylamidolacry]amide] | – | – | – | 11.8 ± 0.18 | 6.7 ± 0.36 | 5.1 ± 0.17 |
| CCCNC(=O)/C(=C/c1ccc(F)cc1)NC(=O)/C=C/c1cccs1 [Compound 2612, (Z)-3-(4-fluorophenyl)-N-propyl-2-[(E)-3-(thien-2-yl)acrylamidolacry]amide] | – | – | – | 7.68 ± 0.05 | 17.3 ± 0.13 | 10.7 ± 0.68 |
| CCCNC(=O)/C(=C/c1ccc(N(C)C)cc1)NC(=O)C=Cc1ccccc1 [Compound 2712, (Z)-2-cinnamamido-3-[4-(dimethylamino)phenyl]-N-propylacrylamide] | 6.95 ± 0.46 | 6.8 ± 0.05 | 4.24 ± 0.09 | – | – | – |
| CCCNC(=O)/C(=C/c1ccc(N(C)C)cc1)NC(=O)/C=C/c1ccc(OC)cc1 [Compound 2912, (Z)-3-[4-(dimethylamino)phenyl]-2-[(E)-3-(4-methoxyphenyl)acrylamido]-N-propylacrylamide] | 12.4 ± 0.25 | 36.9 ± 0.25 | 15.3 ± 0.05 | – | – | – |
| CCCNC(=O)/C(=C/c1ccc(N(C)C)cc1)NC(=O)/C=C/c1ccc(C)cc1 [Compound 3012, (Z)-3-[4-(dimethylamino)phenyl]-N-propyl-2-[(E)-3-(p-tolyl)acrylamidolacry]amide] | – | – | – | 39.6 ± 0.22 | 22.1 ± 0.1 | 29.4 ± 0.08 |
| CCCNC(=O)/C(=C/c1ccc(N(C)C)cc1)NC(=O)/C=C/c1cccs1 [Compound 3112, (Z)-3-[4-(dimethylamino)phenyl]-N-propyl-2-[(E)-3-(thien-2-yl)acrylamidolacry]amide] | – | – | – | 66.5 ± 0.1 | 11.6 ± 0.39 | 27.7 ± 3.7 |
| CCCNC(=O)/C(=C/c1ccc(O)c(OC)c1)NC(=O)C=Cc1ccccc1 [Compound 3212, (Z)-2-cinnamamido-3-(4-hydroxy-3-methoxyphenyl)-N-propylacrylamide] | > 100 | 9.14 ± 0.23 | 6.32 ± 0.02 | – | – | – |
| CCCNC(=O)/C(=C/c1ccc(O)c(OC)c1)NC(=O)/C=C/c1ccc(Cl)cc1 [Compound 3312, (Z)-2-[(E)-3-(4-chlorophenyl)acrylamido]-3-(4-hydroxy-3-methoxyphenyl)-N-propylacrylamide] | 37.8 ± 1.8 | 5.4 ± 0.34 | 6.1 ± 0.44 | – | – | – |
| CCCNC(=O)/C(=C/c1ccc(O)c(OC)c1)NC(=O)/C=C/c1ccc(OC)cc1 [Compound 3412, (Z)-3-(4-hydroxy-3-methoxyphenyl)-2-[(E)-3-(4-methoxyphenyl)acrylamido]-N-propylacrylamide] | 38.4 ± 2.1 | 48.6 ± 0.4 | 18 ± 1.2 | – | – | – |
| CCCNC(=O)/C(=C/c1ccc(O)c(OC)c1)NC(=O)/C=C/c1ccc(C)cc1 [Compound 3512, (Z)-3-(4-hydroxy-3-methoxyphenyl)-N-propyl-2-[(E)-3-(p-tolyl)acrylamidolacry]amide] | – | – | – | 15.1 ± 0.67 | 26.3 ± 1.3 | 20.9 ± 1.1 |
| CCCNC(=O)/C(=C/c1ccc(O)c(OC)c1)NC(=O)/C=C/c1cccs1 [Compound 3612, (Z)-3-(4-hydroxy-3-methoxyphenyl)-N-propyl-2-[(E)-3-(thien-2-yl)acrylamidolacry]amide] | – | – | – | 48.3 ± 1.9 | 24.8 ± 1.4 | 28.3 ± 1.3 |
| CCCNC(=O)/C(=C/c1c[nH]c2ccccc12)NC(=O)/C=C/c1ccc(C)cc1 [Compound 4012, (Z)-3-(1H-indol-3-yl)-N-propyl-2-[(E)-3-(p-tolyl)acrylamidolacry]amide] | – | – | – | 3.12 ± 0.06 | 3.39 ± 0.1 | 2.3 ± 0.08 |
| O=C/C=C/c1ccccc1 [tCA, trans-cinnamaldehyde, reference compound] | 12.4 ± 1.2 | – | – | – | – | – |

From US11214556B1, “Method of treating colorectal cancer” (King Abdulaziz University, priority 2019, dated 2022)
